Here are results for 12 molecules from publication PMC10253445, “Exploring the Potential of Sulfonamide-Dihydropyridine Hybrids as Multitargeted Ligands for Alzheimer’s Disease Treatment” (International Journal of Molecular Sciences, 2023).

“And” between values parts separate entries of the source, which are not always exact repeats. Identical values can stand only once. “Also recorded” adds a separate entry of the source.

Assay [1] deals with T1, EeAChE (Electrophorus electricus, UniProt O42275).
T1 construct: purified AChE from Electrophorus; purchased Sigma-Aldrich Type V-S; host or cells: natural enzyme purified from Electrophorus electricus
The experiment in a line: biochemical. The note with it: for inhibition at 10 µM: read-out: EeAChE % inhibition at 10 μM (IC50 not given).

The target of assay [2] is T2, eqBChE (Equus caballus, UniProt P81908).
T2 construct: BuChE from horse serum; purchased Sigma-Aldrich; host or cells: horse serum
The experiment in a line: biochemical. The note with it: for IC50: read-out: eqBChE IC50 ± SEM; for inhibition at 10 µM: read-out: eqBChE % inhibition at 10 μM (IC50 not given). The format is biochemical.

In assay [3] the test system is calcium channel. Nature of the assay: Calcium channel blockade, FLIPR calcium indicator 6 in SH-SY5Y cells. The format is cell-based. The conditions noted are these: KCl/CaCl2-induced calcium flux. The procedure:
Assessment of calcium channel blockade of compounds 4a–i was performed according to the previously described protocol using the FLIPR calcium indicator 6 [59]. Briefly, FLIPR-loaded SH-SY5Y cells were exposed for 10 min to a 10 μm concentration of the tested compounds and to nimodipine used as a reference. 0.1% DMSO was used as a vehicle. […] Data were collected in three independent experiments with eight technical replicates per experiment. Outliers detected by the Grubbs test were excluded from further analysis.

For assay [4], the system named is Nrf2-ARE. Nature of the assay: Nrf2 transcriptional activation, Nrf2/ARE-luciferase reporter cells. The conditions noted are these: for CD (concentration required to double the specific luciferase reporter activity): 24 h treatment; for lowest concentration with significant induction of the Nrf2 transcriptional pathway: tested at 1, 5, 10, 25, 50 μM for 24 h. The format is cell-based. The procedure: The Nrf2-ARE activating effect of selected 4a, 4d and 4f was evaluated in vitro using a cell-based luciferase assay in the AREc32 cell line, tert-butylhydroquinone (TBHQ) being used as positive control.
Then, AREc32 cells were treated with increasing concentrations of each compound (1, 5, 10, 25, 50 μM) for 24 h, and luciferase activity was then measured.
The evaluation of Nrf2 transcriptional activation was then performed using non-cytotoxic concentrations of the tested compounds according to the protocol previously described. Briefly, the cells were seeded as described for the MTT assay, except that white 96-well culture plates were used. After 48 h of incubation, the cells were treated with the tested compounds or DMSO (0.1%). After 24 h of treatment, luciferase activity was measured using the Bright–Glo Luciferase Assay System (Promega, Madison, WI, USA) according to the manufacturer’s instructions. All reactions were performed in duplicate and repeated in at least four different cultures.

Assay [5] in a line: Oxygen radical absorbance capacity (ORAC) assay. The note with it: Trolox Equivalents, mean (n = 3) ± SEM.
Protocol: Briefly, in a black 96-well microplate (Nunc), fluorescein and the tested compound were incubated for 15 min at 37 °C. […] All reactions were performed in triplicate, and at least three different assays were performed for each sample.
Assay [6] concerns Nrf2-ARE. Details: method as in PMID 27736061. The conditions noted are these: cited from earlier work.

T1 sequence (O42275 24-633): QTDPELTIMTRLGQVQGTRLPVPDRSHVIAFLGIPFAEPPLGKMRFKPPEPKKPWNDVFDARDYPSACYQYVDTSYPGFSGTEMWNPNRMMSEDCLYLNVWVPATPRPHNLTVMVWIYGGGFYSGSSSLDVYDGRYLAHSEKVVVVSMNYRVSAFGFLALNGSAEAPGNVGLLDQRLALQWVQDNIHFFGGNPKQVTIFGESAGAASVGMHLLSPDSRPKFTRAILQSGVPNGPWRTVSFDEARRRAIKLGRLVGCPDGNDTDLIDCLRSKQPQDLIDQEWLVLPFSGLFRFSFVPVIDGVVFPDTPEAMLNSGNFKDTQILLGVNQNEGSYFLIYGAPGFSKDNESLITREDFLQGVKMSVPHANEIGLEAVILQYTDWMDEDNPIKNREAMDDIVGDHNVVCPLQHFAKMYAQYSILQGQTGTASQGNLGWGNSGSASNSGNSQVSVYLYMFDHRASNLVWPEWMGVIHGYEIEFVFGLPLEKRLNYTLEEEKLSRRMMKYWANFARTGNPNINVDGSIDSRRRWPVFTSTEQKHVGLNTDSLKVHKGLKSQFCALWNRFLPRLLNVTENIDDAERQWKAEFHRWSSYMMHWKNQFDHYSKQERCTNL
T2 sequence (P81908 whole entry): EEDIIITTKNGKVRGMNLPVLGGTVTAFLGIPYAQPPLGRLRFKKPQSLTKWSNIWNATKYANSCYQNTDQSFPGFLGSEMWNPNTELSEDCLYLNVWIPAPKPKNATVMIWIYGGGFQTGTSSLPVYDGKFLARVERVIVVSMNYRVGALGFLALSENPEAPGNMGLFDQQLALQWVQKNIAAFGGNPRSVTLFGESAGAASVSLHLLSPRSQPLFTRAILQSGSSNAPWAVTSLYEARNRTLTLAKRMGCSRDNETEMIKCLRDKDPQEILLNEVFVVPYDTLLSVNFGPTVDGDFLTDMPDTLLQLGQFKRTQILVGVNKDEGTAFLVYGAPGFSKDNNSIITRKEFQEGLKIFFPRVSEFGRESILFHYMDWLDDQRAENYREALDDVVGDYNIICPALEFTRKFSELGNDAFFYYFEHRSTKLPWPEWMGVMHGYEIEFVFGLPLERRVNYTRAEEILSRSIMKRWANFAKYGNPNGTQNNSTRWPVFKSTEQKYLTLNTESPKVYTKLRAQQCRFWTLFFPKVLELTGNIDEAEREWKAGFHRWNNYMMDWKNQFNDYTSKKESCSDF

Turning to `COC(=O)C1=C(C)NC(C)=C(C(=O)OC)C1c1ccc(NS(=O)(=O)c2ccccc2)cc1` [Compound 4a, Dimethyl 2,6-Dimethyl-4-(4-(phenylsulfonamido)phenyl)-1,4-dihydropyridine-3,5-dicarboxylate], the inhibition at 10 µM in assay [1] was under 50%. In assay [2], the “selectivity AChE vs BChE” value was “totally selective to BChE; also recorded: fully selective inhibition of BChE” and the IC50 was 5 ± 0.4 µM. For the same molecule, the “Calcium Antagonism (% Inhibition at 10 μM) ± SEM” value in assay [3] is reported as 32 ± 5.1%. Also, in assay [4], the “CD (concentration required to double the specific luciferase reporter activity)” value was 19.3 µM and 19.3 ± 6.7 µM; the “lowest concentration with significant induction of the Nrf2 transcriptional pathway” value was 25 µM. For the same molecule, the ORAC in assay [5] is 1.59 TE and 1.59 ± 0.2 TE.

In the case of `COC(=O)C1=C(C)NC(C)=C(C(=O)OC)C1c1ccc(NS(=O)(=O)c2ccc(C)cc2)cc1` [Compound 4b, Dimethyl 2,6-Dimethyl-4-(4-((4-methylphenyl)sulfonamido)phenyl)-1,4-dihydropyridine-3,5-dicarboxylate], the inhibition at 10 µM in assay [1] and in assay [2] was under 50% in each case. Besides, the “Calcium Antagonism (% Inhibition at 10 μM) ± SEM” value in assay [3] is reported as 37 ± 5.1%. The ORAC in assay [5] is on record as 1.96 ± 0.1 TE.

As for `COC(=O)C1=C(C)NC(C)=C(C(=O)OC)C1c1ccc(NS(C)(=O)=O)cc1` [Compound 4c, Dimethyl 2,6-Dimethyl-4-(4-(methylsulfonamido)phenyl)-1,4-dihydropyridine-3,5-dicarboxylate], the inhibition at 10 µM in assay [1] and in assay [2] was under 50% each time. Besides, in assay [5], the ORAC was 3.01 TE and 3.01 ± 0.1 TE.

With `CCOC(=O)C1=C(C)NC(C)=C(C(=O)OCC)C1c1ccc(NS(=O)(=O)c2ccccc2)cc1` [Compound 4d, Diethyl 2,6-Dimethyl-4-(4-(phenylsulfonamido)phenyl)-1,4-dihydropyridine-3,5-dicarboxylate], the inhibition at 10 µM in assay [1] was under 50%. Further, in assay [2], the “fold less active than tacrine on eqBChE” value is given as 135 fold, the “selectivity AChE vs BChE” value is “totally selective to BChE; also recorded: fully selective inhibition of BChE” and the IC50 amounted to 0.3 ± 0.1 µM. In addition, the “Calcium Antagonism (% Inhibition at 10 μM) ± SEM” value in assay [3] is on record as 22 ± 4.7%. In addition, the “Nrf2 transcriptional activation (luciferase activity)” value in assay [4] (1-50 μM, 24 h) is on record as “no significant activity”. Further, the “CD (concentration required to double the specific luciferase reporter activity)” value in assay [4] was over 50 µM. In assay [5], the ORAC is 1.67 TE and 1.67 ± 0.0 TE.

Turning to `CCOC(=O)C1=C(C)NC(C)=C(C(=O)OCC)C1c1ccc(NS(=O)(=O)c2ccc(C)cc2)cc1` [Compound 4e, Diethyl 2,6-Dimethyl-4-(4-((4-methylphenyl)sulfonamido)phenyl)-1,4-dihydropyridine-3,5-dicarboxylate], the inhibition at 10 µM in assay [1] and in assay [2] was under 50% in each case. Moreover, the “Calcium Antagonism (% Inhibition at 10 μM) ± SEM” value in assay [3] is 26 ± 4.1%. Also, in assay [5], the ORAC was determined as 2.07 ± 0.3 TE.

In the case of `CCOC(=O)C1=C(C)NC(C)=C(C(=O)OCC)C1c1ccc(NS(C)(=O)=O)cc1` [Compound 4f, Diethyl 2,6-Dimethyl-4-(4-(methylsulfonamido)phenyl)-1,4-dihydropyridine-3,5-dicarboxylate], the IC50 in assay [1] (read-out: EeAChE IC50 ± SEM) stood at 12.6 ± 1.2 µM; in assay [2] it was 8.7 ± 0.6 µM. The “Calcium Antagonism (% Inhibition at 10 μM) ± SEM” value in assay [3] came out at 27 ± 3.5%. Moreover, in assay [4], the “CD (concentration required to double the specific luciferase reporter activity)” value is 44.3 µM and 44.3 ± 4.7 µM. For the same molecule, the “lowest concentration with significant induction of the Nrf2 transcriptional pathway” value in assay [4] stood at 50 µM. The ORAC in assay [5] was 1.30 TE and 1.30 ± 0.1 TE.

For the molecule `CC1=C(C(=O)OC(C)C)C(c2ccc(NS(=O)(=O)c3ccccc3)cc2)C(C(=O)OC(C)C)=C(C)N1` [Compound 4g, Diisopropyl 2,6-Dimethyl-4-(4-(phenylsulfonamido)phenyl)-1,4-dihydropyridine-3,5-dicarboxylate], the inhibition at 10 µM in assay [1] and in assay [2] was under 50% each time. In addition, the “Calcium Antagonism (% Inhibition at 10 μM) ± SEM” value in assay [3] is recorded as 50 ± 4.1%. Besides, in assay [5], the ORAC was 0.86 TE and 0.86 ± 0.1 TE.

As to `CC1=C(C(=O)OC(C)C)C(c2ccc(NS(=O)(=O)c3ccc(C)cc3)cc2)C(C(=O)OC(C)C)=C(C)N1` [Compound 4h, Diisopropyl 2,6-Dimethyl-4-(4-((4-methylphenyl)sulfonamido)phenyl)-1,4-dihydropyridine-3,5-dicarboxylate], the inhibition at 10 µM in assay [1] and in assay [2] was under 50% throughout. Further, the “Calcium Antagonism (% Inhibition at 10 μM) ± SEM” value in assay [3] amounted to 51 ± 5.3%. For the same molecule, the ORAC in assay [5] is 1.59 ± 0.1 TE.

In the case of `CC1=C(C(=O)OC(C)C)C(c2ccc(NS(C)(=O)=O)cc2)C(C(=O)OC(C)C)=C(C)N1` [Compound 4i, Diisopropyl 2,6-Dimethyl-4-(4-(methylsulfonamido)phenyl)-1,4-dihydropyridine-3,5-dicarboxylate], the inhibition at 10 µM in assay [1] and in assay [2] was under 50% throughout. Also, the “Calcium Antagonism (% Inhibition at 10 μM) ± SEM” value in assay [3] is listed as 25 ± 5.1%. Moreover, in assay [5], the ORAC is reported as 1.11 ± 0.3 TE.

For the molecule `CC(C)(C)c1cc(O)ccc1O` [TBHQ, tert-butylhydroquinone, reference compound], the “CD (concentration required to double the specific luciferase reporter activity)” value in assay [4] is 1.2 µM and 1.2 ± 0.2 µM.

Take `COc1ccc2[nH]cc(CCNC(C)=O)c2c1` [melatonin]: in assay [6], the CD was 60 µM.

With `COCCOC(=O)C1=C(C)NC(C)=C(C(=O)OC(C)C)C1c1cccc([N+](=O)[O-])c1` (centres unmarked) [nimodipine, reference compound], the “Calcium Antagonism (% Inhibition at 10 μM) ± SEM” value in assay [3] came out at 52 ± 4.1%.
